For the compound `COc1ccc(Oc2cc(-n3c(=O)cc(C(F)(F)F)n(C)c3=O)c(F)cc2C#N)cc1` [Example 2, 4-(3,6-dihydro-2,6-dioxo-3-methyl-4-trifluoro-methyl-1(2H)-pyrimidin-1-yl)-5-fluoro-2-(4-methoxy-phenoxy)-benzonitrile], the melting point came out at 62 °C. Consider `COc1ccc(Oc2cc(-n3c(=O)cc(C(F)(F)F)[nH]c3=O)c(F)cc2C#N)cc1` [Example 1, 4-(3,6-dihydro-2,6-dioxo-4-trifluoromethyl-1(2H)-pyrimidin-1-yl)-5-fluoro-2-(4-methoxy-phenoxy)-benzonitrile], for which the melting point worked out at 84 °C.

By melting point is commonly meant the temperature of the solid-liquid transition.

The record behind these values is patent US6815398B1, “Substituted phenyluracils and their use as herbicides” (Bayer Aktiengesellschaft, priority 1999, dated 2004).
